According to patent US20150141580A1, “OPTIMIZED DRUG CONJUGATES” (SynDevRx, Inc., priority 2010, published 2015):

Test: Pharmacokinetics of polymer conjugate, plasma SDX-7539 by LC-MS/MS
Format: in vivo, Sprague-Dawley rats
Conditions: after SDX-7539 30 mg/kg or SDX-7320 200 mg/kg IV, rat
Protocol: FIG. 6 is a graph showing the plasma concentration of the active metabolite, SDX-7539, as a function of time in Sprague-Dawley rats, to which either the polymer conjugate SDX-7320 (single bolus, intravenous injection, 200 mg/kg) or the small molecule SDX-7539 (single bolus, intravenous injection, 30 mg/kg) has been administered.
The polymer conjugate, SDX-7320, or the in vivo release product, SDX-7539 were administered to Sprague-Dawley rats (N=3). Blood was collected over 48 hours after dosing to determine the plasma concentration of SDX-7539 by LC-MS/MS. The LLOQ for SDX-7539 was 2.5 nM. The terminal elimination half-life for SDX-7539 was estimated by fitting a linear regression to the In[SDX-7539] versus time data. […] Cmax for the polymer is about 2% of the value for the small molecule.

CO[C@@H]1[C@H](OC(=O)NC2CCC(N)CC2)CC[C@]2(CO2)[C@H]1[C@@]1(C)O[C@@H]1CC=C(C)C (stereo partly shown) [SDX-7539]
AUC for SDX-7539: comparable
